The record followed here is ChEMBL document CHEMBL4840335, “Rational Design and Development of Novel CDK9 Inhibitors for the Treatment of Acute Myeloid Leukemia” (J Med Chem, 2021).

Molecules are shown by their SMILES. Calls of active or inactive are those of the source. The calls are words filed in the database; no cut-off is given here.

Experiment [1] deals with CDK9/cyclin T1 (Homo sapiens, UniProt P50750). The experiment can be described thus: Inhibition of CDK9/cyclin T1 (unknown origin) incubated for 2 hrs in presence of ATP by FRET based LANCE assay. Format: protein-complex assay.
CDK9/cyclin T1, sequence (O60563 whole entry): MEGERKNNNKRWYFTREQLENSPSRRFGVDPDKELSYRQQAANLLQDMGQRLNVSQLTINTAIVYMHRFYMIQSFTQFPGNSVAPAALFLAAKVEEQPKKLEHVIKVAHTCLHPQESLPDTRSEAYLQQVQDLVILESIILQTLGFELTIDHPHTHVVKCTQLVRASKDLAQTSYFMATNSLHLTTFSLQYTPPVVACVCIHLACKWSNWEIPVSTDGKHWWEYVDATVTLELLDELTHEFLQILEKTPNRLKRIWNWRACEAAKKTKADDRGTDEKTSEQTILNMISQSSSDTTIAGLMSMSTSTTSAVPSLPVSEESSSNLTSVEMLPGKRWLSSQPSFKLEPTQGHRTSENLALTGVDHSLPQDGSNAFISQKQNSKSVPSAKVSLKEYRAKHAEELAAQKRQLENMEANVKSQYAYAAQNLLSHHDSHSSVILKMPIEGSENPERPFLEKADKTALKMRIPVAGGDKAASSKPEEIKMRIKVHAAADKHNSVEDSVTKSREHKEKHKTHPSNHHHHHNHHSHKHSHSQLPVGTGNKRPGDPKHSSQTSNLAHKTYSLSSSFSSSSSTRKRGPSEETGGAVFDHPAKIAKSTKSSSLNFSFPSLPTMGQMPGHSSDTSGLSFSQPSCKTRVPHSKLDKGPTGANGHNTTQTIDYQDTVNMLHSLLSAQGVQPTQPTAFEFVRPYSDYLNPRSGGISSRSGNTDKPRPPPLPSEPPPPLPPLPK
CDK9/cyclin T1, sequence (P50750 whole entry): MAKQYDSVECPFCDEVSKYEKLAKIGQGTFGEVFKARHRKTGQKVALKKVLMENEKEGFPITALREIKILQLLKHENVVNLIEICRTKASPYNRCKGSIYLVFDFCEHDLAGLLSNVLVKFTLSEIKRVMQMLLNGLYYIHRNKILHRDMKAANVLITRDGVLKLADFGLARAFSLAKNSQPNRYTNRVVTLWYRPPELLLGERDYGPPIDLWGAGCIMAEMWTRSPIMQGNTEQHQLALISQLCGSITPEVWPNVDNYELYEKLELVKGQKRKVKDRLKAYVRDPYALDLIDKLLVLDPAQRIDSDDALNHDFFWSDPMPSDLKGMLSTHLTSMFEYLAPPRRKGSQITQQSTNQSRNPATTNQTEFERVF
The target of experiment [2] is Cyclin-dependent kinase 2 (Homo sapiens, UniProt P24941). The experiment can be described thus: Inhibition of CDK2 (unknown origin).
The target in experiment [3] is Cyclin-dependent kinase 4 (Homo sapiens, UniProt P11802). The experiment can be described thus: Inhibition of CDK4 (unknown origin).
Cyclin-dependent kinase 4, sequence (P11802 whole entry): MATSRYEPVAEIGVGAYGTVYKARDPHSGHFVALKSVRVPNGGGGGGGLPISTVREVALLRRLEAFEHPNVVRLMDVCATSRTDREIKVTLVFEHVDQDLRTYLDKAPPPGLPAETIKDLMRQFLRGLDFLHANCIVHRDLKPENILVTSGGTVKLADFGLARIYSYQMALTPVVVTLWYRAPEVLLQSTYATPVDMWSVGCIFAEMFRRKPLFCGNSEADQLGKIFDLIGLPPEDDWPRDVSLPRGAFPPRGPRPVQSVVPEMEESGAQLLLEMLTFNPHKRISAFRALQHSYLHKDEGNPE
The target in experiment [4] is Cyclin-dependent kinase 6 (Homo sapiens, UniProt Q00534). Put plainly: Inhibition of CDK6 (unknown origin).
Cyclin-dependent kinase 6, sequence (Q00534 whole entry): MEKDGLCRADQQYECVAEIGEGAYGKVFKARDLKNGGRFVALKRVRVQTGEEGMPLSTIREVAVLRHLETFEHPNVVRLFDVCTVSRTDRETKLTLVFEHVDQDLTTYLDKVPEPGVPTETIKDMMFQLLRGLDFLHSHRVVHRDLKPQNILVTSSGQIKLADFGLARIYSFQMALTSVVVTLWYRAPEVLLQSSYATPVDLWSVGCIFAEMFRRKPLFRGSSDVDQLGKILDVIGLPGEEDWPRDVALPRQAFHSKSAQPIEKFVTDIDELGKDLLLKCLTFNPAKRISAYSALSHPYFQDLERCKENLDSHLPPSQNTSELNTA
The target in experiment [5] is Cyclin-dependent kinase 7 (Homo sapiens, UniProt P50613). Put plainly: Inhibition of CDK7 (unknown origin).
Cyclin-dependent kinase 7, sequence (P50613 whole entry): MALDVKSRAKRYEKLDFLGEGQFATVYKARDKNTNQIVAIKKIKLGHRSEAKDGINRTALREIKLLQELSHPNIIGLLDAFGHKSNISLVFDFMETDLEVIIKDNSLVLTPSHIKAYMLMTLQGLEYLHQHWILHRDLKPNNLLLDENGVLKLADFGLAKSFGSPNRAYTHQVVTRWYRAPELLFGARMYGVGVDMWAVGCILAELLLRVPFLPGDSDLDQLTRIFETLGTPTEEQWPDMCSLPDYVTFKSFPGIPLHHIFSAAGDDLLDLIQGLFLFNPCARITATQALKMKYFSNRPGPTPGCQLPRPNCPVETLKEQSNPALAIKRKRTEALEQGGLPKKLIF
Experiment [6] deals with CDK9/cyclin T1 (Homo sapiens) (UniProt O60563+P50750). Put plainly: Inhibition of CDK9/cyclin T1 (unknown origin) at 10 uM incubated for 2 hrs in presence of ATP by FRET based LANCE assay relative to control. Format: protein-complex assay.
Experiment [7] can be described thus: Antiproliferative activity against human MINO cells assessed as reduction in cell proliferation measured after 3 to 7 days by MTS assay. Type of experiment: functional, cell-based.
The subject of experiment [8] is Z-138. Put plainly: Antiproliferative activity against human Z138 cells assessed as reduction in cell proliferation measured after 3 to 7 days by MTS assay. Type of experiment: functional, cell-based.
For experiment [9], the system named is JeKo-1. Put plainly: Antiproliferative activity against human JeKo-1 cells assessed as reduction in cell proliferation measured after 3 to 7 days by MTS assay. Format: functional, cell-based.
The subject of experiment [10] is Raji. The experiment can be described thus: Antiproliferative activity against human Raji cells assessed as reduction in cell proliferation measured after 3 to 7 days by MTS assay. Format: functional, cell-based.
For experiment [11], the system named is OCI-Ly10. The experiment can be described thus: Antiproliferative activity against human OCILY10 cells assessed as reduction in cell proliferation measured after 3 to 7 days by MTS assay. Format: functional, cell-based.
Experiment [12] relates to TMD8. Put plainly: Antiproliferative activity against human TMD8 cells assessed as reduction in cell proliferation measured after 3 to 7 days by MTS assay. Format: functional, cell-based.
Experiment [13] concerns MM1.S. The experiment can be described thus: Antiproliferative activity against human MM1.S cells assessed as reduction in cell proliferation measured after 3 to 7 days by MTS assay. Type of experiment: functional, cell-based.
The subject of experiment [14] is RPMI-8226. The experiment can be described thus: Antiproliferative activity against human RPMI-8226 cells assessed as reduction in cell proliferation measured after 3 to 7 days by MTS assay. Type of experiment: functional, cell-based.
Experiment [15] has as its system Kasumi 1. The experiment can be described thus: Antiproliferative activity against human Kasumi 1 cells assessed as reduction in cell proliferation measured after 3 to 7 days by MTS assay. Type of experiment: functional, cell-based.
The subject of experiment [16] is HL-60. The experiment can be described thus: Antiproliferative activity against human HL-60 cells assessed as reduction in cell proliferation measured after 3 to 7 days by MTS assay. Type of experiment: functional, cell-based.
In experiment [17] the test system is CCRF-CEM. Put plainly: Antiproliferative activity against human CCRF-CEM cells assessed as reduction in cell proliferation measured after 3 to 7 days by MTS assay. Format: functional, cell-based.
Experiment [18] deals with MV4-11. Put plainly: Antiproliferative activity against human MV4-11 cells assessed as reduction in cell proliferation measured after 3 to 7 days by MTS assay. Type of experiment: functional, cell-based.
The test system of experiment [19] is MV4-11. The experiment can be described thus: Induction of apoptosis in human MV4-11 cells assessed as activation of caspase-3 at 5 to 50 nM measured after 24 hrs by Western blot analysis. Format: functional, cell-based. The following applies: dose 5-50 nM.
The subject of experiment [20] is MV4-11. Put plainly: Induction of apoptosis in human MV4-11 cells assessed as activation of cleaved PARP at 5 to 50 nM measured after 24 hrs by Western blot analysis. Format: functional, cell-based. As to conditions: dose 5-50 nM.
For experiment [21], the system named is MV4-11. The experiment can be described thus: Induction of apoptosis in human MV4-11 cells assessed as live cells at 10 nM measured after 24 hrs by annexinV-FITC/propidium iodide staining based flow cytometry (reference value: 95.14 %). Format: functional.
Experiment [22] relates to MV4-11. The experiment can be described thus: Induction of apoptosis in human MV4-11 cells assessed as early apoptotic cells at 10 nM measured after 24 hrs by annexinV-FITC/propidium iodide staining based flow cytometry (reference value: 0.79 %). Type of experiment: functional.
Experiment [23] has as its system MV4-11. Put plainly: Induction of apoptosis in human MV4-11 cells assessed as late apoptotic cells at 10 nM measured after 24 hrs by annexinV-FITC/propidium iodide staining based flow cytometry (reference value: 3.04 %). Format: functional.
The subject of experiment [24] is MV4-11. Put plainly: Induction of apoptosis in human MV4-11 cells assessed as necrotic cells at 10 nM measured after 24 hrs by annexinV-FITC/propidium iodide staining based flow cytometry (reference value: 1.03 %). Format: functional.
The subject of experiment [25] is MV4-11. The experiment can be described thus: Induction of apoptosis in human MV4-11 cells assessed as live cells at 50 nM measured after 24 hrs by annexinV-FITC/propidium iodide staining based flow cytometry (reference value: 95.14 %). Type of experiment: functional.
Experiment [26] relates to MV4-11. Put plainly: Induction of apoptosis in human MV4-11 cells assessed as early apoptotic cells at 50 nM measured after 24 hrs by annexinV-FITC/propidium iodide staining based flow cytometry (reference value: 0.79 %). Type of experiment: functional.
Experiment [27] relates to MV4-11. Put plainly: Induction of apoptosis in human MV4-11 cells assessed as late apoptotic cells at 50 nM measured after 24 hrs by annexinV-FITC/propidium iodide staining based flow cytometry (reference value: 3.04 %). Type of experiment: functional.
Experiment [28] relates to MV4-11. Put plainly: Induction of apoptosis in human MV4-11 cells assessed as necrotic cells at 50 nM measured after 24 hrs by annexinV-FITC/propidium iodide staining based flow cytometry (reference value: 1.03 %). Type of experiment: functional.

For `Cc1n[nH]c2ccc(-c3cc(N[C@@H](CO)c4ccc(F)cc4)cnc3Cl)cc12`, in [1], the IC50 was 0.0265 µM.

Take `Cc1n[nH]c2ccc(-c3cncc(NC(CO)c4ccccc4)n3)cc12` (racemic): the IC50 in [1] is 0.0142 µM; in [2], 0.147 µM; in experiment [3], > 1 µM; in experiment [4] it was > 1 µM; in experiment [5], > 1 µM.

Consider `Cc1n[nH]c2ccc(-c3cncc(N[C@@H](CO)c4ccccc4)n3)cc12`, for which the IC50 in [1] is 0.00604 µM; in experiment [2] it was 0.0674 µM; in experiment [3], > 1 µM; in [4] it was > 1 µM; in experiment [5] it was > 1 µM.

For the compound `Cc1n[nH]c2ccc(-c3cncc(NC(C)CO)n3)cc12` (centres undefined), the IC50 in experiment [1] came to 0.995 µM.

As to `COc1cc(F)ccc1-c1cncc(NC(CO)c2ccccc2)n1` (centres undefined), the inhibition in experiment [6] was found to be 12.4%.

Regarding `Cc1nc2c(F)cc(-c3cncc(NC(CO)c4ccccc4)n3)cc2n1C(C)C` (centres undefined), in experiment [6], the inhibition came out at 13.8%.

Turning to `OCC(Nc1cncc(-c2ccc3nccnc3c2)n1)c1ccccc1` (centres undefined), in experiment [6], the inhibition came out at 2.63%.

In the case of `O=c1[nH]c2ccc(-c3cncc(NC(CO)c4ccccc4)n3)cc2[nH]1` (centres undefined), the inhibition in experiment [6] amounted to 0.61%.

Turning to `Cc1n[nH]c2ccc(-c3cncc(NC(CO)c4cccc(C(F)(F)F)c4)n3)cc12` (racemic), the IC50 in [1] was determined as 0.341 µM.

With `Cc1n[nH]c2ccc(-c3cncc(N[C@@H](CO)c4cccc(F)c4)n3)cc12`, the 50% inhibitory concentration (IC50) in experiment [1] was 0.00915 µM; in experiment [2] it was 0.0345 µM; in experiment [3], > 1 µM; in [4], > 1 µM; in experiment [5] it was 0.496 µM.

In the case of `Cc1n[nH]c2ncc(-c3cncc(N[C@@H](CO)c4ccccc4)n3)cc12`, in [1], the IC50 was found to be 0.00657 µM.

`Cc1n[nH]c2ncc(-c3cc(N[C@@H](CO)c4ccccc4)cnc3Cl)cc12`: the IC50 in experiment [1] was 0.0207 µM; in experiment [2], > 1 µM; in experiment [3] it was > 1 µM; in experiment [4] it was > 1 µM; in experiment [5], > 1 µM.

Take `COC[C@H](C)N[C@H]1CC[C@H](Nc2cc(-c3cccc(NCC4(C#N)CCOCC4)n3)c(Cl)cn2)CC1`: the IC50 in experiment [1] was 0.00496 µM; in experiment [2] it was > 1 µM; in experiment [3], > 1 µM; in experiment [4], > 1 µM; in [5], > 1 µM; in experiment [7] it was 0.0052 µM. Further, the IC50 in experiment [8] amounted to 0.0037 µM; in [9], 0.01 µM; in experiment [10], 0.011 µM; in experiment [11], 0.0021 µM; in experiment [12] it was 0.015 µM; in [13], 0.0063 µM. For the same compound, the half-maximal inhibitory concentration (IC50) in experiment [14] worked out at 0.014 µM; in [15] it was 0.0068 µM; in [16] it was 0.0057 µM; in [17], 0.0033 µM; in [18], 0.0054 µM. The outcome in experiment [19] and in experiment [20] was Active. Also, the Activity in experiment [21] was 77.97%; in experiment [22], 3.33%; in experiment [23], 15.48%; in experiment [24], 3.23%; in experiment [25], 4.36%; in [26] it was 1.8%. Moreover, the Activity was found to be 77.18% in experiment [27] and 16.67% in experiment [28].

In the case of `Cc1n[nH]c2ccc(-c3cncc(N[C@@H](CO)c4ccc(F)c(F)c4)n3)cc12`, the IC50 in experiment [1] amounted to 0.0247 µM.

With `Cc1n[nH]c2ccc(-c3cncc(N[C@@H](CO)c4ccc(F)cc4)n3)cc12`, the IC50 in experiment [1] was 0.0204 µM; in [2] it was 0.0561 µM; in experiment [3] it was > 1 µM; in [4], > 1 µM; in experiment [5], > 1 µM.

Take `Cc1cccc(C(CO)Nc2cncc(-c3ccc4[nH]nc(C)c4c3)n2)c1` (racemic): the IC50 in [1] was found to be 0.153 µM.

As for `Cc1n[nH]c2ccc(-c3cncc(NC(CO)c4ccc(F)c(F)c4)n3)cc12` (racemic), in [1], the IC50 is 0.0273 µM.

As to `Cc1n[nH]c2ccc(-c3cncc(NC4CCCC(O)C4)n3)cc12` (centres undefined), the IC50 was 0.643 µM in experiment [1]; 0.0529 µM in experiment [2]; > 1 µM in experiment [3]; > 1 µM in experiment [4]; 0.322 µM in experiment [5].

As for `OC[C@H](Nc1cncc(-c2ccc3[nH]ncc3c2)n1)c1ccccc1`, in experiment [1], the IC50 came to 0.0423 µM.

As to `Cc1n[nH]c2ccc(-c3cncc(NC(CO)c4ccc(F)cc4)n3)cc12` (racemic), the IC50 in experiment [1] is 0.0503 µM.

Regarding `Cc1n[nH]c2ccc(-c3cncc(N[C@@H](CO)c4ccc(Cl)cc4)n3)cc12`, the half-inhibitory concentration (IC50) in experiment [1] was 0.0756 µM.

With `Cc1n[nH]c2ccc(-c3cncc(N[C@H](CO)c4ccccc4)n3)cc12`, in experiment [1], the IC50 was found to be 8.77 µM.

As to `OCC(Nc1cncc(-c2ccc3occc3c2)n1)c1ccccc1` (centres undefined), in [1], the IC50 was determined as 8.92 µM.

Take `Cc1n[nH]c2ccc(-c3cncc(NC(CO)c4cccc(OC(F)(F)F)c4)n3)cc12` (racemic): the IC50 in experiment [1] came out at 0.633 µM.

Turning to `COc1ccc([C@H](CO)Nc2cncc(-c3ccc4[nH]nc(C)c4c3)n2)cc1`, in [1], the half-inhibitory concentration (IC50) amounted to 0.774 µM.

Consider `Cc1n[nH]c2ccc(-c3cncc(N[C@H](C)c4ccc(F)cc4)n3)cc12`, for which the IC50 in experiment [1] is 6.8 µM.

On to `O=C1Cc2cc(-c3cncc(NC(CO)c4ccccc4)n3)ccc2N1` (centres undefined), for which the inhibition in [6] came out at 31.4%.

In the case of `Cc1n[nH]c2ccc(-c3cncc(NC(CO)c4ccccc4F)n3)cc12` (racemic), the IC50 in experiment [1] amounted to 0.0243 µM.

Take `Cc1n[nH]c2ccc(-c3cncc(N[C@H](C)c4ccccc4)n3)cc12`: the half-maximal inhibitory concentration (IC50) in [1] was 0.883 µM.
